Reference: patent publication US20080140138A1, “Inhibition of inflammatory cytokine production by stimulation of brain muscarinic receptors” (priority 2002, published 2008)

What was measured:
[1] = test system: voltage-sensitive potassium channel; assay: NovaScreen receptor binding panel; settings: 10 μM, average of duplicate tubes
Protocol: (§1) Method of determining CNI-1493 receptor binding. CNI-1493 was tested at a single concentration (10 μM) in a panel of receptor binding assays by NovaScreen Biosciences Corporation (Hanover, Md.). Values were expressed as the percent inhibition of specific binding, and represented the average of duplicate tubes. Method of stereotactic intracerebroventricular injections. A rat model of intracerebroventricular (i.c.v.) injections was established in order to be able to directly deliver pharmacological agents into the brain of rats. This was necessary in order to separate drug effects on peripheral inflammation that occurred through central versus peripheral mechanisms. Lewis rats were anaesthetized with urethane (1 g/kg, i.p.) and xylazine (15 mg/rat, i.m. (intramuscular)). Rats were then placed in a stereotactic head frame (Stoelting, Wood Dale, Ill., USA). The incisor bar was adjusted until the plane defined by the lambda and bregma was parallel to the base plate. For i.c.v. injections the needle of a Hamilton syringe (25 μl) was positioned stereotactically above the lateral ventricle (0.2 mm and 1.5 mm posterior to bregma, 3.2 mm below the dura.) Solutions of the drugs tested were prepared in sterile endotoxin-free water, at the specified concentrations, and a 10-μl injection/rat was administered over 2 min, 1 h prior to either carrageenan injection, or to LPS.

[2] = target: Type N calcium channel (Homo sapiens, UniProt Q00975); assay: NovaScreen receptor binding panel; settings: 10 μM, average of duplicate tubes
Protocol: as §1

[3] = test system: vasoactive intestinal peptide; assay: NovaScreen receptor binding panel; settings: 10 μM, average of duplicate tubes
Protocol: as §1

[4] = test system: Type L calcium channel; assay: NovaScreen receptor binding panel; settings: 10 μM; <50% = marginal or no activity
Protocol: as §1

[5] = test system: glutamate (NMDA agonist site); assay: NovaScreen receptor binding panel; settings: 10 μM; <50% = marginal or no activity
Protocol: as §1

[6] = target: vasopressin 1 (Homo sapiens, UniProt P37288); assay: NovaScreen receptor binding panel; settings: 10 μM; <50% = marginal or no activity
Protocol: as §1

[7] = target: thromboxane A2 (Homo sapiens, UniProt P21731); assay: NovaScreen receptor binding panel; settings: 10 μM; <50% = marginal or no activity
Protocol: as §1

[8] = target: T1, Muscarinic, M5 (Human recombinant) (Homo sapiens, UniProt P08912); assay: NovaScreen muscarinic receptor binding panel; settings: 10 μM, average of duplicate tubes
T1 construct: NovaScreen Biosciences Corporation (contract laboratory that ran the assay)
Protocol: (§2) Method of determining muscarinic receptor subtype. CNI-1493 was tested at a single concentration (10 μM) in a panel of muscarinic receptor binding assays by NovaScreen Biosciences Corporation (Hanover, Md.). Values were expressed as the percent inhibition of specific binding, and represented the average of duplicate tubes.

[9] = target: T2, Muscarinic, M3 (Human recombinant) (Homo sapiens, UniProt P20309); assay: NovaScreen muscarinic receptor binding panel; settings: 10 μM, average of duplicate tubes
T2 construct: NovaScreen Biosciences Corporation (contract laboratory that ran the assay)
Protocol: as §2

[10] = test system: Muscarinic, M3; assay: NovaScreen muscarinic receptor binding panel; settings: 10 μM, average of duplicate tubes
Protocol: as §2

[11] = target: Muscarinic, M1 (Human recombinant) (Homo sapiens, UniProt P11229); assay: NovaScreen muscarinic receptor binding panel; settings: 10 μM, average of duplicate tubes
Protocol: as §2

[12] = test system: Muscarinic, M1; assay: NovaScreen muscarinic receptor binding panel; settings: 10 μM, average of duplicate tubes
Protocol: as §2

[13] = test system: Muscarinic, M2; assay: NovaScreen muscarinic receptor binding panel; settings: 10 μM, average of duplicate tubes
Protocol: as §2

[14] = target: Muscarinic, M2 (Human recombinant) (Homo sapiens, UniProt P08172); assay: NovaScreen muscarinic receptor binding panel; settings: 10 μM, average of duplicate tubes
Protocol: as §2

[15] = target: T3, Muscarinic, M4 (Human recombinant) (Homo sapiens, UniProt P08173); assay: NovaScreen muscarinic receptor binding panel; settings: 10 μM, average of duplicate tubes
T3 construct: NovaScreen Biosciences Corporation (contract laboratory that ran the assay)
Protocol: as §2

T1 sequence (P08912 whole entry): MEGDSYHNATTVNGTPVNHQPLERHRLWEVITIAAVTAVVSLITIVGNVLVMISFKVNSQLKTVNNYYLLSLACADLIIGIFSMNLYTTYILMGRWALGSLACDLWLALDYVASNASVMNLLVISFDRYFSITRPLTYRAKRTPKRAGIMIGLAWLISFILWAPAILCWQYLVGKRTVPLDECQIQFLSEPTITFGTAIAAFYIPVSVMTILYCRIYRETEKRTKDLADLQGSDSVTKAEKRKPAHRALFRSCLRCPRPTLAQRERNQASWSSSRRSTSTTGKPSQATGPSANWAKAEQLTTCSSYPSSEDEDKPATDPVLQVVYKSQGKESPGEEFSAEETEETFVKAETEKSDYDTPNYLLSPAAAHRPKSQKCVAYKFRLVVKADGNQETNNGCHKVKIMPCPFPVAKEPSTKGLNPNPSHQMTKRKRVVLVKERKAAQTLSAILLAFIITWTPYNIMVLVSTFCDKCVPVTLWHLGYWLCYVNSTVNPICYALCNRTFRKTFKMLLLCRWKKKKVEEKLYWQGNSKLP
T3 sequence (P08173 whole entry): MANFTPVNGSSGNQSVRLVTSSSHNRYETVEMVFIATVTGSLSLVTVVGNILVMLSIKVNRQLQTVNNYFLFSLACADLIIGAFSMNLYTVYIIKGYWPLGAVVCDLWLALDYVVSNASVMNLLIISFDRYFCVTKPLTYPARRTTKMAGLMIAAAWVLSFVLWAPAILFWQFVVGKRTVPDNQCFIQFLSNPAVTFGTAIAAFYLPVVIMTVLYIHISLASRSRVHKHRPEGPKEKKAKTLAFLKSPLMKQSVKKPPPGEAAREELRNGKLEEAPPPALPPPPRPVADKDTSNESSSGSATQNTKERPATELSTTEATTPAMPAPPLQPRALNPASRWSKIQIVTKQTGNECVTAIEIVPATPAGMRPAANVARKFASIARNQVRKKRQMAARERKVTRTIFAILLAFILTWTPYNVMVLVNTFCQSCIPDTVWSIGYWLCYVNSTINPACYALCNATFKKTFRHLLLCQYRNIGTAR
Chain of thromboxane A2 (P21731 whole entry): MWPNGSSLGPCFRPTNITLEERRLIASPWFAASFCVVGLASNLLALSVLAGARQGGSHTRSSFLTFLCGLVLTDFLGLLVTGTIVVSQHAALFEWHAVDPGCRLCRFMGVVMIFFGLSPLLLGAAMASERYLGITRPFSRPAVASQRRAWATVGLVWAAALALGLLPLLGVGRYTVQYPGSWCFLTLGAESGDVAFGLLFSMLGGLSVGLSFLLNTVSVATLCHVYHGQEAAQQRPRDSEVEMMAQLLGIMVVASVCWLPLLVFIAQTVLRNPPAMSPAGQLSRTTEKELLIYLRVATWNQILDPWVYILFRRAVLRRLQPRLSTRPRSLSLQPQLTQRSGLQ
Chain of vasopressin 1 (P37288 whole entry): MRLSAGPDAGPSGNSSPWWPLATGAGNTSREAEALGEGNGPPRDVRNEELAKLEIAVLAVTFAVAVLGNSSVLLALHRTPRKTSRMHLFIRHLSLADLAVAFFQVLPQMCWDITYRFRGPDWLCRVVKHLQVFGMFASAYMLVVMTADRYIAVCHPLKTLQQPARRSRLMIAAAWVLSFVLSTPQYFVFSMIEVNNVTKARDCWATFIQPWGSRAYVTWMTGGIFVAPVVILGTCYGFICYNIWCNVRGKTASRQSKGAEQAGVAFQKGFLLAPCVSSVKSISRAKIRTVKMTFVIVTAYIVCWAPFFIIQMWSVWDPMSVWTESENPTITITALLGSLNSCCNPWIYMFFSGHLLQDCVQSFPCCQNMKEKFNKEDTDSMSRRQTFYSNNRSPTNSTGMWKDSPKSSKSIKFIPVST
T2 sequence (P20309 whole entry): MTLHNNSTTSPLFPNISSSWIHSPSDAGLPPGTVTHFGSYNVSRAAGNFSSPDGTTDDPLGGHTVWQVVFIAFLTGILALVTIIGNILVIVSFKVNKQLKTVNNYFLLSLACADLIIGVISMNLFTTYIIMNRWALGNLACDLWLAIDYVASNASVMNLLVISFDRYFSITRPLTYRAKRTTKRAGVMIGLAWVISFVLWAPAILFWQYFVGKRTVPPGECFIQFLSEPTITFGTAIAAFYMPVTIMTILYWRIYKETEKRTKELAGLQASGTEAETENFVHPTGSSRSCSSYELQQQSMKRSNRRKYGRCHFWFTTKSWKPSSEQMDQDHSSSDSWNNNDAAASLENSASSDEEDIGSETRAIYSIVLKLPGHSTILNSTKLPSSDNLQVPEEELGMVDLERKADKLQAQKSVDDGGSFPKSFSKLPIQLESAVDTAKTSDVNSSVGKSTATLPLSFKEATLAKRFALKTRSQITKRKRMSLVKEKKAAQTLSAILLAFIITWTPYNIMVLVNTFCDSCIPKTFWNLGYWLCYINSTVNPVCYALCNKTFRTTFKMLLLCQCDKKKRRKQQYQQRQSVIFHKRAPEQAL
Chain of Muscarinic, M2 (Human recombinant) (P08172 whole entry): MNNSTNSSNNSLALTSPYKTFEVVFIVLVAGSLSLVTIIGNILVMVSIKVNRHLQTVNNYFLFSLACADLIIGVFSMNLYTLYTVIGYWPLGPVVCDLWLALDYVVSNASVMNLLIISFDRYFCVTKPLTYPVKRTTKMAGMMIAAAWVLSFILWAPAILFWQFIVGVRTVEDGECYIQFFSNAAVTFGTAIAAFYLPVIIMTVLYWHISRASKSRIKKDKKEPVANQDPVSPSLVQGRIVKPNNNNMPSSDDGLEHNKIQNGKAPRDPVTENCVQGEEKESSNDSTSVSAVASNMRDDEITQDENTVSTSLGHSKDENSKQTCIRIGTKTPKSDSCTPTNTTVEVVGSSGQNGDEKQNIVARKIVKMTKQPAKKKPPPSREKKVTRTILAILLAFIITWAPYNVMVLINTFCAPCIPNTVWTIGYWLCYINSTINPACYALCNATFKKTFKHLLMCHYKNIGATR
Chain of Muscarinic, M1 (Human recombinant) (P11229 whole entry): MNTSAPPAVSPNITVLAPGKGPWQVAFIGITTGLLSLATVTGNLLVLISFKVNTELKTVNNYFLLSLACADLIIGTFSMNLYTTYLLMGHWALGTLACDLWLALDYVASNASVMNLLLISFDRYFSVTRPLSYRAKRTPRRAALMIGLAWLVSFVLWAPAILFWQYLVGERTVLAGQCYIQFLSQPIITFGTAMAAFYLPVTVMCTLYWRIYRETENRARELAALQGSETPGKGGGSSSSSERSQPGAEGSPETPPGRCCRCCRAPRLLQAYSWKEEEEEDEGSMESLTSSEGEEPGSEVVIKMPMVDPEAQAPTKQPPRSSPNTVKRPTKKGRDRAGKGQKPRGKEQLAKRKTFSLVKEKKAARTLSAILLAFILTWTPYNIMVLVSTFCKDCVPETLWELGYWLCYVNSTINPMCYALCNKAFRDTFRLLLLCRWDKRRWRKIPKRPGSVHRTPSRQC

`CC(=NNC(=N)N)c1cc(NC(=O)CCCCCCCCC(=O)Nc2cc(C(C)=NNC(=N)N)cc(C(C)=NNC(=N)N)c2)cc(C(C)=NNC(=N)N)c1.Cl.Cl.Cl.Cl` [CNI-1493, N,N′-bis(3,5-diacetylphenyl) decanediamide tetrakis (amidinohydrazone) tetrahydrochloride] was tested, and the “percent inhibition of specific binding” value [1] was 73.0%, the “percent inhibition of specific binding” value [2] was 84.2% and the “percent inhibition of specific binding” value [3] was 58.5%. For the same molecule, the “percent inhibition of receptor binding” value [4] was “less than 50%”, the “percent inhibition of receptor binding” value [5] was “less than 50%” and the “percent inhibition of receptor binding” value [6] was “less than 50%”. The “percent inhibition of receptor binding” value [7] was “less than 50%”, the Percent inhibition [8] was 43% and the Percent inhibition [9] was 40%. The Percent inhibition [10] was 9%, the Percent inhibition [11] was 72% and the Percent inhibition [12] was 83%. It also gave a Percent inhibition [13] of 85%, a Percent inhibition [14] of 58% and a Percent inhibition [15] of 57%.
